Results published in BindingDB's records for doi:10.1021/jm990041+ (Rhone-Poulenc Rorer, 1999).

Target: Coagulation factor X (Homo sapiens, UniProt P00742)
Assay: Enzyme Assay and Determination of the Inhibition Constants.
Details: not given

Sequence of Coagulation factor X (P00742 41-179 limits assumed): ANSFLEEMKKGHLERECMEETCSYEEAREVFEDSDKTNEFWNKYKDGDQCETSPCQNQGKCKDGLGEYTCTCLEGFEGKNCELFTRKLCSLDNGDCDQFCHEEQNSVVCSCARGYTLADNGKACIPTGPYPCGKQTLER
Sequence of Coagulation factor X (P00742 235-488 limits assumed): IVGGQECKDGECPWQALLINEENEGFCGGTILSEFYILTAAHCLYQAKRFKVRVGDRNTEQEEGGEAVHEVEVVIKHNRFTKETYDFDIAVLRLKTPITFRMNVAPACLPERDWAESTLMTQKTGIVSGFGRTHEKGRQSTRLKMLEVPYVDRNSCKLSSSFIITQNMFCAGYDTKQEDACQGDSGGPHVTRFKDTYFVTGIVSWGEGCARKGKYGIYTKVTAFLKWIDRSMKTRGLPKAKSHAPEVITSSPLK

Row | Ki [µM] | SMILES
1 | > 1 | C[n+]1ccc(-c2ccc(S(=O)(=O)N[C@H]3CCN(Cc4cccc(C(=N)N)c4)C3=O)cc2)cc1 [4-(4-{[(3S)-1-[(3-carbamimidoylphenyl)methyl]-2-oxopyrrolidin-3-yl]sulfamoyl}phenyl)-1-methylpyridin-1-ium]

Target: T1, Serine protease 1 (Bos taurus, UniProt P00760)
T1 sequence (P00760 whole entry): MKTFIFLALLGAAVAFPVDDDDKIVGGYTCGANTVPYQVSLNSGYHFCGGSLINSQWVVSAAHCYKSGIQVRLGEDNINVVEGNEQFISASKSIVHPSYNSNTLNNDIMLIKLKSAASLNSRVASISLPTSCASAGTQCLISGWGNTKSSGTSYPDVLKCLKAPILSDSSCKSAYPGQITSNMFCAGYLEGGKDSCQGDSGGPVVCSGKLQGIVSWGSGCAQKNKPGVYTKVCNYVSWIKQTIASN
Assay: as above
Details: not given

Row | Ki [µM] | SMILES
2 | > 2.9 | N=C(N)c1cccc(CN2CC[C@H](NS(=O)(=O)c3ccc(-c4cccnc4)s3)C2=O)c1 [3-[2-Oxo-3-(S)-(5-pyridin-3-ylthiophene-2-ylsulfonylamino)-pyrrolidin-1-ylmethyl]benzamidine]
3 | 1.9 | N=C(N)c1cccc(CN2CC[C@H](NS(=O)(=O)c3ccc(-c4ccon4)s3)C2=O)c1 [3-[3-(S)-(5-Isoxazol-3-ylthiophene-2-ylsulfonylamino)-2-oxopyrrolidin-1-ylmethyl]benzamidine]
4 | > 2.9 | N=C(N)c1cccc(CN2CC[C@H](NS(=O)(=O)c3ccc(-c4cccnc4)cc3)C2=O)c1 [3-{[(3S)-2-oxo-3-{[4-(pyridin-3-yl)benzene]sulfonamido}pyrrolidin-1-yl]methyl}benzene-1-carboximidamide]
5 | > 2.9 | N=C(N)c1cccc(CN2CC[C@H](NS(=O)(=O)c3ccc(-c4ccncc4)cc3)C2=O)c1 [3-{[(3S)-2-oxo-3-{[4-(pyridin-4-yl)benzene]sulfonamido}pyrrolidin-1-yl]methyl}benzene-1-carboximidamide]
6 | 2.1 | N=C(N)c1cccc(CN2CC[C@H](NS(=O)(=O)c3ccc(-c4ccccn4)s3)C2=O)c1 [3-{[(3S)-2-oxo-3-{[5-(pyridin-2-yl)thiophene-2-]sulfonamido}pyrrolidin-1-yl]methyl}benzene-1-carboximidamide]
7 | > 2.9 | N=C(N)c1cccc(CN2CC[C@H](NS(=O)(=O)c3ccc(-c4ccncc4)s3)C2=O)c1 [3-{[(3S)-2-oxo-3-{[5-(pyridin-4-yl)thiophene-2-]sulfonamido}pyrrolidin-1-yl]methyl}benzene-1-carboximidamide]
8 | > 2.9 | Cn1ccnc1-c1ccc(S(=O)(=O)N[C@H]2CCN(Cc3cccc(C(=N)N)c3)C2=O)cc1 [3-{[(3S)-3-{[4-(1-methyl-1H-imidazol-2-yl)benzene]sulfonamido}-2-oxopyrrolidin-1-yl]methyl}benzene-1-carboximidamide]
9 | > 2.9 | COc1nccc(-c2ccc(S(=O)(=O)N[C@H]3CCN(Cc4cccc(C(=N)N)c4)C3=O)s2)n1 [3-{[(3S)-3-{[5-(2-methoxypyrimidin-4-yl)thiophene-2-]sulfonamido}-2-oxopyrrolidin-1-yl]methyl}benzene-1-carboximidamide]
10 | > 2.9 | C[n+]1ccc(-c2ccc(S(=O)(=O)N[C@H]3CCN(Cc4cccc(C(=N)N)c4)C3=O)cc2)cc1 [4-(4-{[(3S)-1-[(3-carbamimidoylphenyl)methyl]-2-oxopyrrolidin-3-yl]sulfamoyl}phenyl)-1-methylpyridin-1-ium]
11 | > 2.9 | N=C(N)c1cccc(CN2CC[C@H](NS(=O)(=O)c3ccc(-c4cc[n+]([O-])cc4)cc3)C2=O)c1 [4-(4-{[(3S)-1-[(3-carbamimidoylphenyl)methyl]-2-oxopyrrolidin-3-yl]sulfamoyl}phenyl)-1-oxidopyridin-1-ium]
12 | 1.7 | N=C(N)c1ccc(N)c(CN2CC[C@H](NS(=O)(=O)c3ccc(-c4ccon4)s3)C2=O)c1 [4-Amino-3-[3-(S)-(5-isoxazol-3-ylthiophene-2-ylsulfonylamino)-2-oxopyrrolidin-1-ylmethyl]benzamidine]
13 | 1.5 | N=C(N)c1ccc(N)c(CN2CC[C@H](NS(=O)(=O)c3ccc(-c4cccnc4)s3)C2=O)c1 [4-amino-3-{[(3S)-2-oxo-3-{[5-(pyridin-3-yl)thiophene-2-]sulfonamido}pyrrolidin-1-yl]methyl}benzene-1-carboximidamide]
14 | > 2.9 | N=C(N)c1ccc(F)c(CN2CC[C@H](NS(=O)(=O)c3ccc(-c4cccnc4)s3)C2=O)c1 [4-fluoro-3-[((3S)-2-oxo-3-{[(5-pyridin-3-ylthien-2-yl)sulfonyl]amino}pyrrolidin-1-yl)methyl]benzenecarboximidamide]
15 | 2.9 | N=C(N)c1ccc(O)c(CN2CC[C@H](NS(=O)(=O)c3ccc(-c4ccon4)s3)C2=O)c1 [4-hydroxy-3-{[(3S)-3-{[5-(1,2-oxazol-3-yl)thiophene-2-]sulfonamido}-2-oxopyrrolidin-1-yl]methyl}benzene-1-carboximidamide]

Same assay, conditions: pH 7.5; 22 °C

Row | Ki [µM] | SMILES
16 | > 2.9 | COc1ccc2ccc(S(=O)(=O)N[C@H]3CCN(Cc4cc(C(=N)N)ccc4OCC(=O)O)C3=O)cc2c1 [2-(4-carbamimidoyl-2-{[(3S)-3-[(7-methoxynaphthalene-2-)sulfonamido]-2-oxopyrrolidin-1-yl]methyl}phenoxy)acetic acid]
17 | > 2.9 | COc1ccc2ccc(S(=O)(=O)N[C@H]3CCN(Cc4ccc(O)c(C(=N)N)c4)C3=O)cc2c1 [2-hydroxy-5-{[(3S)-3-[(7-methoxynaphthalene-2-)sulfonamido]-2-oxopyrrolidin-1-yl]methyl}benzene-1-carboximidamide]
18 | > 2.9 | COc1ccc2ccc(S(=O)(=O)N[C@H]3CCN(Cc4cc(N)cc(C(=N)N)c4)C3=O)cc2c1 [3-Amino-5-[3-(S)-(7-methoxynaphthalen-2-ylsulfonylamino)-2-oxopyrrolidin-1-ylmethyl]benzamidine]
19 | > 2.9 | N=C(N)c1cccc(CN2CC[C@H](NS(=O)(=O)c3ccc(-c4ccccc4)cc3)C2=O)c1 [3-{[(3S)-2-oxo-3-[(4-phenylbenzene)sulfonamido]pyrrolidin-1-yl]methyl}benzene-1-carboximidamide]
20 | > 2.9 | N=C(N)c1cccc(CN2CC[C@H](NS(=O)(=O)c3ccc(-c4ccccn4)cc3)C2=O)c1 [3-{[(3S)-2-oxo-3-{[4-(pyridin-2-yl)benzene]sulfonamido}pyrrolidin-1-yl]methyl}benzene-1-carboximidamide]
21 | 0.704 | COc1ccc2ccc(S(=O)(=O)N(C)[C@H]3CCN(Cc4cccc(C(=N)N)c4)C3=O)cc2c1 [3-{[(3S)-3-[(7-methoxynaphthalene-2-)(methyl)sulfonamido]-2-oxopyrrolidin-1-yl]methyl}benzene-1-carboximidamide]
22 | 0.853 | COc1ccc2ccc(S(=O)(=O)N[C@H]3CCN(Cc4cccc(C(=N)N)c4)C3=O)cc2c1 [3-{[(3S)-3-[(7-methoxynaphthalene-2-)sulfonamido]-2-oxopyrrolidin-1-yl]methyl}benzene-1-carboximidamide]
23 | 0.189 | COc1ccc2ccc(S(=O)(=O)N(C)[C@H]3CCN(Cc4cc(C(=N)N)ccc4N)C3=O)cc2c1 [4-amino-3-{[(3S)-3-[(7-methoxynaphthalene-2-)(methyl)sulfonamido]-2-oxopyrrolidin-1-yl]methyl}benzene-1-carboximidamide]
24 | 0.299 | COc1ccc2ccc(S(=O)(=O)N[C@H]3CCN(Cc4cc(C(=N)N)ccc4N)C3=O)cc2c1 [4-amino-3-{[(3S)-3-[(7-methoxynaphthalene-2-)sulfonamido]-2-oxopyrrolidin-1-yl]methyl}benzene-1-carboximidamide]
25 | 0.305 | COc1ccc2ccc(S(=O)(=O)N[C@H]3CCN(Cc4cc(C(=N)N)ccc4O)C3=O)cc2c1 [4-hydroxy-3-{[(3S)-3-[(7-methoxynaphthalene-2-)sulfonamido]-2-oxopyrrolidin-1-yl]methyl}benzene-1-carboximidamide]
26 | > 2.9 | COc1ccc2ccc(S(=O)(=O)N(C)[C@H]3CCN(Cc4cc(C(=N)N)ccc4NC(C)=O)C3=O)cc2c1 [N-(4-carbamimidoyl-2-{[(3S)-3-[(7-methoxynaphthalene-2-)(methyl)sulfonamido]-2-oxopyrrolidin-1-yl]methyl}phenyl)acetamide]
27 | 0.012 | COC(=O)COc1ccc(C(=N)N)cc1CN1CC[C@H](NS(=O)(=O)c2ccc3ccc(OC)cc3c2)C1=O [methyl 2-(4-carbamimidoyl-2-{[(3S)-3-[(7-methoxynaphthalene-2-)sulfonamido]-2-oxopyrrolidin-1-yl]methyl}phenoxy)acetate]
